Source: US4065461A, “Amino containing pyridyloxy propanols” (Aktieselskabet Grindstedvaerket, priority 1975, dated 1977)
Like-named read-outs stand apart in the source and are kept apart here.

Legend:
[1] = test system: β1 -receptors; test: β1-adrenoreceptor blockade: antagonism of isoprenaline-induced changes in heart rate in anaesthetized cats; type: in vivo; settings: for ratio between these two activities (ED50 β2 / ED50 β1): anaesthetized cats, intravenous, Table I; for selectivity for β1 -receptors versus β2 -receptors, in words: conclusion from Table I
Description: (§1) The examinations thus comprise selective effect against isoprenaline-induced changes in heart rate, which are presumed to be elicited by stimulation of β1 -receptors; and against the reduction in tone in the peripheral vasculature induced by the said agonist is presumed to be due to stimulation of β2 -receptors.
(§2) The test animals were adult cats of either sex.
(§3) The heart rate was derived electronically from the blood pressure in the right carotid artery, and the reduction in tone in the peripheral vasculature was determined by recording changes in hind quarter vascular resistance.
(§4) Each cat was dosed repeatedly at 15 minutes' intervals throughout the experiment with 1 μg isoprenaline as the hydrochloride, the dose of this and the other standard drugs being stated in terms of the base. When constant responses of both heart rate and hind quarter perfusion pressure were obtained, a dose of 4 μg/kg of one of the test compounds was administered intraveneously 2 minutes before the isoprenaline dose. This initial dose of the test compound was administered again 15 minutes later. Thereafter, the test compound was administered at 15 minutes' intervals, each successive dose being twice the preceeding dose, the injection always being given two minutes prior to the next isoprenaline dose. […] In this way, cumulative dose-response curves for the effects of each test compound could be calculated and approximately ED50 values obtained.

[2] = target: T1, β1 -receptors (Felis catus, UniProt Q9TST6); test: as above; type: in vivo; settings: for ED50: cat, read-out: Approximate ED50 value for β1 -receptor blockade; for potency as antagonist of the β1 -receptors relative to propranolol: compared with propranolol, Table I; for activity as antagonist of the β1 -receptors, in words: conclusion from Table I
T1 construct: The test animals were adult cats of either sex; from tissue; host or cells: heart of anaesthetized cat, in vivo
Description: as §1, §2, §3, §4

[3] = target: T2, β2 -receptors (Felis catus, UniProt Q9TST5); test: β2-adrenoreceptor blockade: antagonism of isoprenaline-induced reduction in tone in the peripheral vasculature (hind quarter perfusion pressure) in anaesthetized cats; type: in vivo; settings: cat, read-out: Approximate ED50 value for β2 -receptor blockade
T2 construct: The test animals were adult cats of either sex; from tissue; host or cells: hind quarter vasculature of anaesthetized cat, in vivo
Description: as §1, §2, §3, §4

[4] = test system: mice; settings: for toxicity, in words: conclusion from Table II
[5] = in vivo; settings: mouse, iv
[6] = test system: β1 -receptors and β2 -receptors; settings: background; cited from earlier work
[7] = anaesthetized cats, intravenous, cumulative doses, isoprenaline-induced change in heart rate
[8] = anaesthetized cats, intravenous, cumulative doses, isoprenaline-induced change in hind quarter perfusion pressure

T1 sequence (Q9TST6 whole entry): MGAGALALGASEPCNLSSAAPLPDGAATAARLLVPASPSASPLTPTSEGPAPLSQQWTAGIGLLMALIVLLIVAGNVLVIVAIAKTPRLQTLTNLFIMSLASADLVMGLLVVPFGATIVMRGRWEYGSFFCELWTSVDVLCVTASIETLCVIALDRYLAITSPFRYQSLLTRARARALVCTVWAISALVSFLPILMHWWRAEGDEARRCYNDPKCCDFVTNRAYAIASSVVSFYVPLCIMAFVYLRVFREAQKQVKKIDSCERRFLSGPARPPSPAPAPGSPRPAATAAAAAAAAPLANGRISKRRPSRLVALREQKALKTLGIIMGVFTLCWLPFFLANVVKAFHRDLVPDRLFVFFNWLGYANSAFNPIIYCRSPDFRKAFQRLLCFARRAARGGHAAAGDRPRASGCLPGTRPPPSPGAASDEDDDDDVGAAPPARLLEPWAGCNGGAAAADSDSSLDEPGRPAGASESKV
T2 sequence (Q9TST5 whole entry, the tested form may be a part): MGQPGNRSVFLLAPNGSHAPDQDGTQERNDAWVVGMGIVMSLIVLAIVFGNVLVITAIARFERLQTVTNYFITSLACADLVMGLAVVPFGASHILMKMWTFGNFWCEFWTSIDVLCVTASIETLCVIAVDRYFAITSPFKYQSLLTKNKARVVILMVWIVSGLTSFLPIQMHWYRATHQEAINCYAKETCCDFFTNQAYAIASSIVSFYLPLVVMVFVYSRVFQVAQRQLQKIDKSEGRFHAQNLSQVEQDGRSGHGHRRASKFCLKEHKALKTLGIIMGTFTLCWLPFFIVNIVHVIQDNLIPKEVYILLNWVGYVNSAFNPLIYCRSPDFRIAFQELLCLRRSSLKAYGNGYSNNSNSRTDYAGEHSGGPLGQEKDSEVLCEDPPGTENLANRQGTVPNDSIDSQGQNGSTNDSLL

Compound | ratio between these two activities (ED50 β2 / ED50 β1) [1] | selectivity for β1 -receptors versus β2 -receptors, in words [1] | ED50 ([2]; iv) | potency as antagonist of the β1 -receptors relative to propranolol [2] | activity as antagonist of the β1 -receptors, in words [2] | ED50 ([3]; iv) | toxicity, in words ([4]; intravenous, mice) | LD50 ([4]; mice, female, intravenous) | LD50 [5] | ED50 [2, 7] | ED50 [3, 8] | LD50 ([4]; mouse, in vivo, iv) | receptor blocking profile, in words [6]
CC(C)NCC(O)COc1cccnc1 (centres unmarked) [Compound 1, 1-Isopropylamino-3-(3-pyridyloxy)-2-propanol] | 207.1 | outstanding selectivity as β1 -adrenoblocking agent | 0.007 mg/kg | greater than | extremely active | 1.45 mg/kg | low toxicity | 285.2 mg/kg | 261 mg/kg | – | – | – | –
CC(C)NCC(O)COc1cccnc1N (centres unmarked) [Compound 2, 1-Isopropylamino-3-[(2-amino-3-pyridyl)oxy]-2-propanol] | 43.8 | high degree of selectivity | – | approximately equal to | – | – | somewhat less toxic | – | 203 mg/kg | 0.08 mg/kg | 3.5 mg/kg | 192.0 mg/kg | –
CC(=O)Nc1ccc(OCC(O)CNC(C)C)cc1 (centres unmarked) [Compound 3, practolol] | 28.9 | approximately thirty times more selectivity against the β1 -receptors than against β2 -receptors | – | much less active than propranolol | – | – | – | – | 41.6 mg/kg | 0.36 mg/kg | 10.4 mg/kg | 31.6 mg/kg | substantial blocking activity on the β1 -receptors and not on the β2 -receptors
CC(C)NCC(O)COc1cccc2ccccc12 (centres unmarked) [Compound 4, 1-(isopropylamino)-3-(1-naphthyloxy)-2-propanol] | – | – | – | – | – | – | – | – | – | – | – | – | act more or less indiscriminately on both types of β-receptors
Cc1ccc(OCC(O)CNC(C)C)cn1 (centres unmarked) [Compound 5] | > 5.8 | rather low degree of selectivity | 0.7 mg/kg | – | not very active | > 4.1 mg/kg | – | 239.4 mg/kg | 285 mg/kg | – | – | – | –
CC(C)NCC(O)COc1cccnc1Cl (centres unmarked) [Compound 6] | 45.0 | – | 0.03 mg/kg | – | – | 1.35 mg/kg | – | 180.2 mg/kg | 165 mg/kg | – | – | – | –
